Experimental data: PubChem BioAssay (NCI)
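96-well plates; 48 h exposure; 5 concentrations. Endpoints by linear interpolation between flanking doses. Not reached: highest tested concentration assigned. The concentration for full growth arrest is given as TGI.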

Assays:
Assay in all cases: growth of human tumour cells (NCI), 48 h
M14 melanoma = system: M14 melanoma
SK-OV-3 ovarian = system: SK-OV-3 ovarian
BT-549 breast = system: BT-549 breast
LOX IMVI melanoma = system: LOX IMVI melanoma
SF-295 CNS = system: SF-295 CNS
CAKI-1 renal = system: CAKI-1 renal
HCT-116 colon = system: HCT-116 colon
HOP-62 NSCLC = system: HOP-62 NSCLC
T-47D breast = system: T-47D breast
NCI-H460 lung = system: NCI-H460 lung
U251 CNS = system: U251 CNS
SK-MEL-5 melanoma = system: SK-MEL-5 melanoma
SF-539 CNS = system: SF-539 CNS
PC-3 prostate = system: PC-3 prostate
OVCAR-8 ovarian = system: OVCAR-8 ovarian
MALME-3M melanoma = system: MALME-3M melanoma
A498 renal = system: A498 renal
ACHN renal = system: ACHN renal
SNB-75 CNS = system: SNB-75 CNS
CCRF-CEM leukemia = system: CCRF-CEM leukemia
SK-MEL-2 melanoma = system: SK-MEL-2 melanoma
MOLT-4 leukemia = system: MOLT-4 leukemia
SNB-19 CNS = system: SNB-19 CNS
COLO 205 colon = system: COLO 205 colon
MCF7 breast = system: MCF7 breast
SW-620 colon = system: SW-620 colon
MDA-MB-435 = system: MDA-MB-435
786-0 renal = system: 786-0 renal
A549 NSCLC = system: A549 NSCLC
HL-60(TB) leukemia = system: HL-60(TB) leukemia
HT29 colon = system: HT29 colon
KM12 colon = system: KM12 colon
OVCAR-5 ovarian = system: OVCAR-5 ovarian
OVCAR-3 ovarian = system: OVCAR-3 ovarian
UACC-62 melanoma = system: UACC-62 melanoma
K-562 leukemia = system: K-562 leukemia
SR leukemia = system: SR leukemia
NCI-H522 lung = system: NCI-H522 lung
HCT-15 colon = system: HCT-15 colon
SF-268 CNS = system: SF-268 CNS
TK-10 renal = system: TK-10 renal
HS 578T breast = system: HS 578T breast
UACC-257 melanoma = system: UACC-257 melanoma
DU-145 prostate = system: DU-145 prostate
MDA-MB-231 breast = system: MDA-MB-231 breast
NCI-H226 lung = system: NCI-H226 lung
IGROV1 ovarian = system: IGROV1 ovarian
SK-MEL-28 melanoma = system: SK-MEL-28 melanoma
SN12C renal = system: SN12C renal
NCI-H23 lung = system: NCI-H23 lung
UO-31 renal = system: UO-31 renal
MDA-N = system: MDA-N
HOP-92 NSCLC = system: HOP-92 NSCLC
NCI/ADR-RES ovarian = system: NCI/ADR-RES ovarian
HCC-2998 colon = system: HCC-2998 colon
EKVX NSCLC = system: EKVX NSCLC
OVCAR-4 ovarian = system: OVCAR-4 ovarian

O=C(NC(=S)Nc1ccc([N+](=O)[O-])cc1)c1ccc2c(c1)Sc1ccccc1O2 showed a TGI (M14 melanoma) greater than 100 µM, a TGI (SK-OV-3 ovarian) greater than 100 µM and a TGI (BT-549 breast) greater than 100 µM. For the same compound, the TGI (LOX IMVI melanoma) was greater than 100 µM, the TGI (SF-295 CNS) was greater than 100 µM and the TGI (CAKI-1 renal) was greater than 100 µM. For the same compound, the TGI (HCT-116 colon) was greater than 100 µM, the TGI (HOP-62 NSCLC) was greater than 100 µM and the TGI (T-47D breast) was greater than 100 µM. The TGI (NCI-H460 lung) was greater than 100 µM, the TGI (U251 CNS) was greater than 100 µM and the TGI (SK-MEL-5 melanoma) was greater than 100 µM. The TGI (SF-539 CNS) was greater than 100 µM, the TGI (PC-3 prostate) was greater than 100 µM and the TGI (OVCAR-8 ovarian) was greater than 100 µM. For the same compound, the TGI (MALME-3M melanoma) was greater than 100 µM, the TGI (A498 renal) was greater than 100 µM and the TGI (ACHN renal) was greater than 100 µM. The TGI (SNB-75 CNS) was 29.6 µM, the TGI (CCRF-CEM leukemia) was greater than 100 µM and the TGI (SK-MEL-2 melanoma) was greater than 100 µM. For the same compound, the TGI (MOLT-4 leukemia) was greater than 100 µM, the TGI (SNB-19 CNS) was greater than 100 µM and the TGI (COLO 205 colon) was greater than 100 µM. The TGI (MCF7 breast) was greater than 100 µM, the TGI (SW-620 colon) was greater than 100 µM and the TGI (MDA-MB-435) was greater than 100 µM. For the same compound, the TGI (786-0 renal) was greater than 100 µM, the TGI (A549 NSCLC) was greater than 100 µM and the TGI (HL-60(TB) leukemia) was greater than 100 µM. For the same compound, the TGI (HT29 colon) was greater than 100 µM, the TGI (KM12 colon) was greater than 100 µM and the TGI (OVCAR-5 ovarian) was greater than 100 µM. The TGI (OVCAR-3 ovarian) was greater than 100 µM, the TGI (UACC-62 melanoma) was greater than 100 µM and the TGI (K-562 leukemia) was greater than 100 µM. It also gave a TGI (SR leukemia) greater than 100 µM, a TGI (NCI-H522 lung) greater than 100 µM and a TGI (HCT-15 colon) greater than 100 µM. It also gave a TGI (SF-268 CNS) greater than 100 µM, a TGI (TK-10 renal) greater than 100 µM and a TGI (HS 578T breast) of 79 µM. For the same compound, the TGI (UACC-257 melanoma) was greater than 100 µM, the TGI (DU-145 prostate) was greater than 100 µM and the TGI (MDA-MB-231 breast) was greater than 100 µM. The TGI (NCI-H226 lung) was greater than 100 µM, the TGI (IGROV1 ovarian) was greater than 100 µM and the TGI (SK-MEL-28 melanoma) was greater than 100 µM. For the same compound, the TGI (SN12C renal) was greater than 100 µM, the TGI (NCI-H23 lung) was greater than 100 µM and the TGI (UO-31 renal) was greater than 100 µM. The TGI (MDA-N) was greater than 100 µM, the TGI (HOP-92 NSCLC) was greater than 100 µM and the TGI (NCI/ADR-RES ovarian) was greater than 100 µM.
Work on O=C(c1ccccc1)N1CCN(C(=S)NC2CCCCC2)C1=S yielded a TGI (HCC-2998 colon) of 33.1 µM, a TGI (M14 melanoma) of 31.3 µM and a TGI (SK-OV-3 ovarian) of 65.6 µM. The TGI (BT-549 breast) was 44.2 µM, the TGI (LOX IMVI melanoma) was 31.1 µM and the TGI (SF-295 CNS) was 54.4 µM. The TGI (CAKI-1 renal) was 62.4 µM, the TGI (HCT-116 colon) was 32.6 µM and the TGI (HOP-62 NSCLC) was 37.3 µM. For the same compound, the TGI (T-47D breast) was 53.1 µM, the TGI (NCI-H460 lung) was 49.5 µM and the TGI (U251 CNS) was 21.6 µM. The TGI (SK-MEL-5 melanoma) was 34.4 µM, the TGI (SF-539 CNS) was 27.7 µM and the TGI (OVCAR-8 ovarian) was 32.9 µM. It also gave a TGI (MALME-3M melanoma) of 32.1 µM, a TGI (A498 renal) of 43.3 µM and a TGI (ACHN renal) of 58 µM. It also gave a TGI (SNB-75 CNS) of 31.6 µM, a TGI (CCRF-CEM leukemia) of 45.1 µM and a TGI (SK-MEL-2 melanoma) of 14.9 µM. The TGI (MOLT-4 leukemia) was 56 µM, the TGI (COLO 205 colon) was 34 µM and the TGI (MCF7 breast) was 48.2 µM. It also gave a TGI (SW-620 colon) of 55.6 µM, a TGI (MDA-MB-435) of 38 µM and a TGI (786-0 renal) of 52.2 µM. The TGI (A549 NSCLC) was 30.6 µM, the TGI (HL-60(TB) leukemia) was 50.3 µM and the TGI (HT29 colon) was 44.1 µM. It also gave a TGI (KM12 colon) of 30.9 µM, a TGI (OVCAR-5 ovarian) of 52.5 µM and a TGI (OVCAR-3 ovarian) of 30.7 µM. It also gave a TGI (UACC-62 melanoma) of 35.6 µM, a TGI (K-562 leukemia) of 96.8 µM and a TGI (SR leukemia) of 88.7 µM. For the same compound, the TGI (NCI-H522 lung) was 30.6 µM, the TGI (HCT-15 colon) was 33.2 µM and the TGI (SF-268 CNS) was 42.5 µM. For the same compound, the TGI (EKVX NSCLC) was 38.3 µM, the TGI (OVCAR-4 ovarian) was 40.8 µM and the TGI (TK-10 renal) was 62 µM. It also gave a TGI (HS 578T breast) of 50.3 µM, a TGI (UACC-257 melanoma) of 38.6 µM and a TGI (DU-145 prostate) of 57.9 µM. The TGI (MDA-MB-231 breast) was 21.1 µM, the TGI (NCI-H226 lung) was 36.1 µM and the TGI (IGROV1 ovarian) was 60.8 µM. It also gave a TGI (SK-MEL-28 melanoma) of 31.2 µM, a TGI (SN12C renal) of 40 µM and a TGI (NCI-H23 lung) of 36.1 µM. For the same compound, the TGI (UO-31 renal) was 30.5 µM, the TGI (MDA-N) was 42.8 µM and the TGI (HOP-92 NSCLC) was 36.7 µM. The TGI (NCI/ADR-RES ovarian) was 43.6 µM.
